Measured values as given in PMC12152883, “Bile acids inhibit equilibrative adenosine transport to alter adenosine receptor signaling in cholestasis” (The Journal of Biological Chemistry, 2025).

Legend:
[1] = Cholestatic mouse model: liver CA, 13C-Ado and total Ado by LC/MS-MS; format: in vivo; settings: includes endogenous Ado
Method: We also examined the total Ado content (includes endogenous Ado) in the harvested mouse livers using LC‒MS‒MS.
Adenosine and ^13C-Ado concentrations were determined in liver tissue samples using a targeted LC‒MS/MS method. The liver samples (∼50 mg) were homogenized with 80% methanol and spiked with 1 μg/ml reserpine as an internal standard. The samples were thoroughly vortexed for 30 s and then centrifuged at 20,000g for 10 min. The supernatant was collected in labeled Eppendorf tubes, and 15 μl of each sample was injected into the LC‒MS/MS system. […] The operational mass spectrometric parameters included a capillary voltage of 4.5 kV; sheath gas of 35 arbitrary units; auxiliary gas of 10 arbitrary units; sweep gas of two arbitrary units; ion transfer tube temperature of 350 °C; vaporizer temperature of 450 °C; dwell time of 50 ms per transition, and collision-induced dissociation gas of 1.5 mTorr. The collision energy was set at 20 V for both Ado and ^13C-Ado, whereas it was set to 38 V for reserpine. Chromatographic separation was performed on a Scherzo SMC18 column (150 × 4.6 mm; 3 μm particle size) from Imtakt. […]
Two hours after the injection, mouse livers were harvested, and the amount of ^13C-Ado uptake in the liver was quantified via LC–MS-MS. […]

PKC = PKC activity in CA-treated HeLa cells; format: cell-based; settings: 100 μM CA, 14 h; control 0.01 ± 0.002
Method: (§1) High concentrations of BAs that inhibit ENT-mediated Ado transport could lead to an increase in extracellular Ado levels and therefore impact cell surface AdoR signaling.
(§2) PKC activity was measured using PKC kinase activity kit (ADI-EKS-420A) purchased from Enzo Biochem. IP3 levels were quantified using an IP3 (Inositol Triphosphate) ELISA Kit (EKF58173) supplied by Biomatik Corporation.

IP3 = IP3 levels in CA-treated HeLa cells; format: cell-based; settings: 100 μM CA, 14 h; control 0.011 ± 0.0004
Method: as §1, §2

cAMP = cAMP levels in CA-treated HeLa cell lysate; format: cell-based; settings: 100 μM CA, 14 h; control 0.96 ± 0.14
PKA = PKA activity in CA-treated HeLa cells; format: cell-based; settings: 100 μM CA, 14 h; control 0.27 ± 0.016

C[C@H](CCC(=O)O)[C@H]1CC[C@H]2[C@@H]3[C@H](O)C[C@@H]4C[C@H](O)CC[C@]4(C)[C@H]3C[C@H](O)[C@]12C [CA, cholic acid]
reduction in the total Ado level in liver compared with control mice [1]: ~12% | PKC activity in HeLa cells (PKC): 0.02 ± 0.0001 U/μg protein | IP3 levels in HeLa cells (IP3): 0.023 ± 0.0006 μg/μg protein | cAMP levels in total HeLa cell lysate (cAMP): 1.28 ± 0.04 pMol/μg protein | PKA activity in HeLa cells (PKA): 0.54 ± 0 U/μg protein
